Assay results from ChEMBL document CHEMBL4507268 (2021).

What was measured:
Conditions in all cases: Compound concentration 1000.0 nM
[1] = target: T1, Serine/threonine-protein kinase Sgk3 (Homo sapiens) (UniProt Q96BR1)
T1 sequence (whole entry): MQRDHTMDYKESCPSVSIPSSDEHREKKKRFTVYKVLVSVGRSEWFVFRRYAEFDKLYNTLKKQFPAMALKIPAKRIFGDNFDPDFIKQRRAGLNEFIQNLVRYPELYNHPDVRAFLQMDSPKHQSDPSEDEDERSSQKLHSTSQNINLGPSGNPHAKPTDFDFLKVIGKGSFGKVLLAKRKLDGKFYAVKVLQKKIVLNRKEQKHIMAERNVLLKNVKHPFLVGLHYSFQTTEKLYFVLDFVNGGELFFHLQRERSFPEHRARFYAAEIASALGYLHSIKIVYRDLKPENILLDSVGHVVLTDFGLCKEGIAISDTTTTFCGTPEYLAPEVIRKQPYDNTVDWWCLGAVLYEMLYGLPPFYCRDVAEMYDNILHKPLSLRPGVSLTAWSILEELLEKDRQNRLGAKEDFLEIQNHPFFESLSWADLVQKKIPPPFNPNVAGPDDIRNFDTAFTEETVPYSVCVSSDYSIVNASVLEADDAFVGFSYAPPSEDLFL

[2] = target: Cyclin-dependent kinase 11B (Homo sapiens) (UniProt P21127)
Chain of Cyclin-dependent kinase 11B (Homo sapiens) (P21127 whole entry): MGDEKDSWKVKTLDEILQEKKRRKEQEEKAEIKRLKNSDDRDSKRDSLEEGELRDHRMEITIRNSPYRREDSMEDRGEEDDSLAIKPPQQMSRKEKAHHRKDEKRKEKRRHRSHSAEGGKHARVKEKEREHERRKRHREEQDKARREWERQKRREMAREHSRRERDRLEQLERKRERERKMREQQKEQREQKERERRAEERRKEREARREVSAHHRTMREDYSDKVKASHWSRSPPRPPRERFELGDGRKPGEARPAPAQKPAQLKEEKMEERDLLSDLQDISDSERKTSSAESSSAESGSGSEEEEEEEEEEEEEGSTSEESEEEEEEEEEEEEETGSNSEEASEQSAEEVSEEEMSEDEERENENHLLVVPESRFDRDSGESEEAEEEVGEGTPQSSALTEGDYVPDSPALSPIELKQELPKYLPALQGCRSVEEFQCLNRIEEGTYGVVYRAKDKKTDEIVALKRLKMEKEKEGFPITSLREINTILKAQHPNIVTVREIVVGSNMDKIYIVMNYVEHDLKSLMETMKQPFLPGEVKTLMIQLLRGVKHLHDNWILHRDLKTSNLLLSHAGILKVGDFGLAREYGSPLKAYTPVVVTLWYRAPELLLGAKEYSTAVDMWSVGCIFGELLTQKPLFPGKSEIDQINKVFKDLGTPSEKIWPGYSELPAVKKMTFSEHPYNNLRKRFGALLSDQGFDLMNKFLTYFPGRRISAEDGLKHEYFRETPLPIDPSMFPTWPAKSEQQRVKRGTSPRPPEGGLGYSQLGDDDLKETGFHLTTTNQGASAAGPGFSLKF

[3] = test system: Epidermal growth factor receptor (Homo sapiens), P00533 [T790M]
[4] = target: Angiopoietin-1 receptor (Homo sapiens) (UniProt Q02763)
[5] = target: SRSF protein kinase 1 (Homo sapiens) (UniProt Q96SB4)
Chain of SRSF protein kinase 1 (Homo sapiens) (Q96SB4 whole entry): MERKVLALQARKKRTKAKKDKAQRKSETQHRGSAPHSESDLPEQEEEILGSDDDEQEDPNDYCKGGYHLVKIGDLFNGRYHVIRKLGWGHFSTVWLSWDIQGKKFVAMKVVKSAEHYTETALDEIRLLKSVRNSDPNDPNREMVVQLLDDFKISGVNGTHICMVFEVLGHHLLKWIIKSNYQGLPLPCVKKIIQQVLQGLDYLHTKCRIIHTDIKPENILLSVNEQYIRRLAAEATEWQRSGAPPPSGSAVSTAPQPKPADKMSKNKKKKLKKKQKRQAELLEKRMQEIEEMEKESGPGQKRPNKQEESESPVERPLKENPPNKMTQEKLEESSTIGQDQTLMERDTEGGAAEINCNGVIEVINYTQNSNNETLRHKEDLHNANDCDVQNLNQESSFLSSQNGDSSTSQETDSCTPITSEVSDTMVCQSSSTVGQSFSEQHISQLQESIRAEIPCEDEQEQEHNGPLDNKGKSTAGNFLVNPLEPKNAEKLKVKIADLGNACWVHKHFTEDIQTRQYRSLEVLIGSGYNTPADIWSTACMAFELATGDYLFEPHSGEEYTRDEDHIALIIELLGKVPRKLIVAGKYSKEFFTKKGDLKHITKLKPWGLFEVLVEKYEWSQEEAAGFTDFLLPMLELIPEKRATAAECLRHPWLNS

[6] = target: Serine/threonine-protein kinase MRCK beta (Homo sapiens) (UniProt Q9Y5S2)
Chain of Serine/threonine-protein kinase MRCK beta (Homo sapiens) (Q9Y5S2 whole entry): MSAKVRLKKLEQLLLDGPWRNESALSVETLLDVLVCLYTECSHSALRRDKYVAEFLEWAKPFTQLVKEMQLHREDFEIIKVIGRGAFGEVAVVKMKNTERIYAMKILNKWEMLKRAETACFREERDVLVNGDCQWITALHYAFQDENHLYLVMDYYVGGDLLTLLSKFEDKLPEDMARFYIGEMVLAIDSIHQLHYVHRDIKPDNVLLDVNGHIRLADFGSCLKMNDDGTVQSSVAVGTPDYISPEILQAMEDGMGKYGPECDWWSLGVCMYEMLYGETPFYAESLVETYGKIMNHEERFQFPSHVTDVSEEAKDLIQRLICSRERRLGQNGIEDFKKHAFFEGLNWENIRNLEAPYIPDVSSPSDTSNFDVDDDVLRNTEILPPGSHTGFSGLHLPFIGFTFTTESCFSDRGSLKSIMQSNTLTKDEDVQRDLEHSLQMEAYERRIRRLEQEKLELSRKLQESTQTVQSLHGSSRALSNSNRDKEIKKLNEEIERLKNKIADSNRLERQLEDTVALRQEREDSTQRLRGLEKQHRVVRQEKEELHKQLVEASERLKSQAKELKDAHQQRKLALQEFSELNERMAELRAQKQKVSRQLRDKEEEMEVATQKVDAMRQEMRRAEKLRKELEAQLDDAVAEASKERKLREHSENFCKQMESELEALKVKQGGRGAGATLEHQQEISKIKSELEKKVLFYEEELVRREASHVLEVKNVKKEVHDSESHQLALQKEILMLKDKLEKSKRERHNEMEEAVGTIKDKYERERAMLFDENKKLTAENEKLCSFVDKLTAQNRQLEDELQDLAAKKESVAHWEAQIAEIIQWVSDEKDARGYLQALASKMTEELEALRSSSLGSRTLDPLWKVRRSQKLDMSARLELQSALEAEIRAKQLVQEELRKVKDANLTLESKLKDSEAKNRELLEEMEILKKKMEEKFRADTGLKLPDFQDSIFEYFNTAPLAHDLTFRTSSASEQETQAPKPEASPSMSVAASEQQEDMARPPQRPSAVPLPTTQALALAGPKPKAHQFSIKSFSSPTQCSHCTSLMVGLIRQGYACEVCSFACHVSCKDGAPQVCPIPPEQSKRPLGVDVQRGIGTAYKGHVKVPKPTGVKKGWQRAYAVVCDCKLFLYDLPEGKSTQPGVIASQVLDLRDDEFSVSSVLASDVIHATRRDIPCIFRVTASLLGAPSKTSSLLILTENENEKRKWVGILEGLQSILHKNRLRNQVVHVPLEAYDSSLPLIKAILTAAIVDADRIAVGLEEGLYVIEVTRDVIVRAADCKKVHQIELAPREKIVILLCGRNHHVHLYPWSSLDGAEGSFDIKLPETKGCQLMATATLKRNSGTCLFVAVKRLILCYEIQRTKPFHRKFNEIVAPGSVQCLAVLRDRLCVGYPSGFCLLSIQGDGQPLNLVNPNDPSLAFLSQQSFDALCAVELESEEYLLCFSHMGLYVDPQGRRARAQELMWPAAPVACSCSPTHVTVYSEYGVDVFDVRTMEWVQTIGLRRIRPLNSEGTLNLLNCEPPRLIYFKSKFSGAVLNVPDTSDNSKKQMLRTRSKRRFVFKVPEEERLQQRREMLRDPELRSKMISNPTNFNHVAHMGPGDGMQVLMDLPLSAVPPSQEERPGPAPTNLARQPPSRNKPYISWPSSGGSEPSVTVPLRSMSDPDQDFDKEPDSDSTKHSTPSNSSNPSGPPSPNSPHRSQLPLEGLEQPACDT

[7] = target: Tyrosine-protein kinase Yes (Homo sapiens) (UniProt P07947)
Chain of Tyrosine-protein kinase Yes (Homo sapiens) (P07947 2-543 limits assumed): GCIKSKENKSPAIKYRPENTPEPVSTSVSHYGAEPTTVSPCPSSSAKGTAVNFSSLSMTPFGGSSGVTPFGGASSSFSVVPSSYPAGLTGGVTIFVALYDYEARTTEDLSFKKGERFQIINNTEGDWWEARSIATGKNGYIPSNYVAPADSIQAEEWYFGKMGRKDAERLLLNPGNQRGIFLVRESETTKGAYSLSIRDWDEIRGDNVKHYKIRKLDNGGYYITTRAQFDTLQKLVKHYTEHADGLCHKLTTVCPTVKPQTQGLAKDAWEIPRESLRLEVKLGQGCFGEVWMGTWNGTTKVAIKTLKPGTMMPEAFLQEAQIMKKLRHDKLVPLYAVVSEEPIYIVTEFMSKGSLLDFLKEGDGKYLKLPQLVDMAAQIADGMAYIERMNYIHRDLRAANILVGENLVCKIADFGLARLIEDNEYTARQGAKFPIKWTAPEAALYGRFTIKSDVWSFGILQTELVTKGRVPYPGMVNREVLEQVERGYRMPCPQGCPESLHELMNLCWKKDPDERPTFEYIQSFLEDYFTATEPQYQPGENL

[8] = test system: Epidermal growth factor receptor (Homo sapiens), P00533 [L861Q]
[9] = target: Proto-oncogene tyrosine-protein kinase ROS (Homo sapiens) (UniProt P08922)
[10] = target: Tyrosine-protein kinase Blk (Homo sapiens) (UniProt P51451)
Chain of Tyrosine-protein kinase Blk (Homo sapiens) (P51451 2-505 limits assumed): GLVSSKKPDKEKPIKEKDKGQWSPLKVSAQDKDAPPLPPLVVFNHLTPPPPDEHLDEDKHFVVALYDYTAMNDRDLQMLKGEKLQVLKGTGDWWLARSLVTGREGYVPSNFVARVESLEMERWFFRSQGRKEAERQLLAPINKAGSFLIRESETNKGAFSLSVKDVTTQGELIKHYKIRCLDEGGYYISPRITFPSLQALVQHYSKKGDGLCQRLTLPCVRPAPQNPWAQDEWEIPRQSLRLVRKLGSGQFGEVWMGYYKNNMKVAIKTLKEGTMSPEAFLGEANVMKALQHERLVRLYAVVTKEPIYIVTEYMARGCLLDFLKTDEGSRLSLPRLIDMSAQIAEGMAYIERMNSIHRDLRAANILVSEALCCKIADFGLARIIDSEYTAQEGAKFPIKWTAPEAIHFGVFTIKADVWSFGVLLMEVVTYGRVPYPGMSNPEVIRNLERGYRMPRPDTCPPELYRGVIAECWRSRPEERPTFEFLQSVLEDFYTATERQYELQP

[11] = target: T2, Calcium/calmodulin-dependent protein kinase type IV (Homo sapiens) (UniProt Q16566)
T2 sequence (whole entry): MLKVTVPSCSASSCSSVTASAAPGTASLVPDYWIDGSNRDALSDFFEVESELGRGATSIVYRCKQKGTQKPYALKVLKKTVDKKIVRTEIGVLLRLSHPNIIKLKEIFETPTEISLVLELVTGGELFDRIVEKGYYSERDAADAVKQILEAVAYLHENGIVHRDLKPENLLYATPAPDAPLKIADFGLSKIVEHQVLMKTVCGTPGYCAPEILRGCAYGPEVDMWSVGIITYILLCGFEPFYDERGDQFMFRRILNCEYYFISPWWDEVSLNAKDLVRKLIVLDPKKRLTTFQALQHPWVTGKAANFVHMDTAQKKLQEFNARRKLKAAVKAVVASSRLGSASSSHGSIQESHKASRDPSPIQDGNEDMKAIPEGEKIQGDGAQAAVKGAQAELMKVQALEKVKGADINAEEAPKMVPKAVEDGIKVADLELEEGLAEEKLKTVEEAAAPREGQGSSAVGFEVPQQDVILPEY

[12] = target: Tyrosine-protein kinase ABL2 (Homo sapiens) (UniProt P42684)
[13] = target: T3, Mitogen-activated protein kinase kinase kinase 5 (Homo sapiens) (UniProt Q99683)
T3 sequence (whole entry): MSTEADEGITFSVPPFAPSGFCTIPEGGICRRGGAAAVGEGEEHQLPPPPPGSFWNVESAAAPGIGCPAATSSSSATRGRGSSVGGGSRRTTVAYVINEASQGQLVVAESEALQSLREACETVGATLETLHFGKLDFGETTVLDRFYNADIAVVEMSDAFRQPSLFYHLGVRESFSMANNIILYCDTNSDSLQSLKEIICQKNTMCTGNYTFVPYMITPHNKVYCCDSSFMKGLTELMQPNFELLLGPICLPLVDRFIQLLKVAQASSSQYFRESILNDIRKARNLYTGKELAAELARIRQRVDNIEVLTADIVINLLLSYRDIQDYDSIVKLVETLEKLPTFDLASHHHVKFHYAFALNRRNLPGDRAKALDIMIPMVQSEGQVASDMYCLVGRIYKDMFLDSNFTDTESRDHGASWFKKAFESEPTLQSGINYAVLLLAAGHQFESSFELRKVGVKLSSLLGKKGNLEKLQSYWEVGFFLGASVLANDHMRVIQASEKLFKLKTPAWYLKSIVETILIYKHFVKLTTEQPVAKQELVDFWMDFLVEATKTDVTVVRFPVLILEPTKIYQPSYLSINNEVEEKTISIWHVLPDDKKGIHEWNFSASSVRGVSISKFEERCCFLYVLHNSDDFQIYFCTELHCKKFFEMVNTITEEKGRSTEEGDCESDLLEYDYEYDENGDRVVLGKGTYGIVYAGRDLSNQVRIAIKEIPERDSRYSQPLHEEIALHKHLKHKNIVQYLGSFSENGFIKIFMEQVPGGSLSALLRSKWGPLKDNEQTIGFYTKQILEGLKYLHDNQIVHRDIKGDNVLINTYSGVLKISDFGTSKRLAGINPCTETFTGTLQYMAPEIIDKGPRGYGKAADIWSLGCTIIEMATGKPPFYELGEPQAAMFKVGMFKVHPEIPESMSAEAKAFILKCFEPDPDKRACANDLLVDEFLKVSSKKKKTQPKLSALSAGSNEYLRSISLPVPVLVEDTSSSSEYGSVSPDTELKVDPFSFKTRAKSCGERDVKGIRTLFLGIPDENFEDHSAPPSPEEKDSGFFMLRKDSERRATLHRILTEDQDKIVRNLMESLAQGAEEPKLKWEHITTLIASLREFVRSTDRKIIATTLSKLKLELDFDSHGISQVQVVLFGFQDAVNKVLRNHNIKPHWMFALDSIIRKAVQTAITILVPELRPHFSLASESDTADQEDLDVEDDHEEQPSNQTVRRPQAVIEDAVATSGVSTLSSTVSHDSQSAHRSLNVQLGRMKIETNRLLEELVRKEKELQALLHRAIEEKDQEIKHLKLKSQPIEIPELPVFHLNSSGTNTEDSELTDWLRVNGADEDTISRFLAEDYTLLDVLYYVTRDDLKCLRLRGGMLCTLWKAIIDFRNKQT

[14] = test system: Hepatocyte growth factor receptor (Homo sapiens), P08581 [Y1235D]

Measured: residual activity

Cc1nc(C2CCN(C(=O)c3ccc(OC(F)(F)F)cc3N)CC2)c2ncc(N3CCN(C)CC3)cc2n1 [BAY-693]
inactive: [1] 93% | [2] 87% | [3] 100% | [4] 81% | [5] 79% | [6] 100% | [7] 100% | [8] 100% | [9] 92% | [10] 97% | [11] 95% | [12] 93% | [13] 99% | [14] 98%

CN1CCN(c2cnc3c(C4CCN(C(=O)c5ccc(OC(F)(F)F)cc5N)CC4)ncnc3c2)CC1 [BAY-885]
inactive: [1] 100% | [2] 82% | [3] 84% | [4] 74% | [5] 88% | [6] 100% | [7] 100% | [8] 100% | [9] 100% | [10] 91% | [11] 94% | [12] 100% | [13] 92% | [14] 73%
